Assay results published in patent US20090069370A1, “AZACYCLYLISOQUINOLINONE AND ISOINDOLINONE DERIVATIVES AS HISTAMINE-3 ANTAGONISTS” (Wyeth, priority 2007, published 2009).
Counter-ions that a name gives are not always drawn.

test system: not given; experiment: not given; settings: not given

Row | SMILES | melting point [°C]
1 | CCNC(=O)c1ccc(-c2ccc3c(c2)CCN([C@@H]2CCN(C4CCC4)C2)C3=O)c(F)c1 (as salt: hydrochloride) [Example 77, 4-{2-[(3R)-1-cyclobutylpyrrolidin-3-yl]-1-oxo-1,2,3,4-tetrahydroisoquinolin-6-yl}-N-ethyl-3-fluorobenzamide] | > 205
2 | CN(C)C(=O)c1ccc(-c2ccc3c(c2)CCN([C@@H]2CCN(C4CCC4)C2)C3=O)c(F)c1 (as salt: hydrochloride) [Example 78, 4-{2-[(3R)-1-cyclobutylpyrrolidin-3-yl]-1-oxo-1,2,3,4-tetrahydroisoquinolin-6-yl}-3-fluoro-N,N-dimethylbenzamide] | 209 to 210
3 | O=C(c1ccc(-c2ccc3c(c2)CCN([C@@H]2CCN(C4CCC4)C2)C3=O)c(F)c1)N1CCCC1 (as salt: hydrochloride) [Example 79, 2-[(3R)-1-cyclobutylpyrrolidin-3-yl]-6-[2-fluoro-4-(pyrrolidin-1-ylcarbonyl)phenyl]-3,4-dihydroisoquinolin-1(2H)-one] | 211 to 212
4 | O=C(NC1CC1)c1ccc(-c2ccc3c(c2)CCN([C@@H]2CCN(C4CCC4)C2)C3=O)c(F)c1 (as salt: hydrochloride) [Example 81, 4-{2-[(3R)-1-cyclobutylpyrrolidin-3-yl]-1-oxo-1,2,3,4-tetrahydroisoquinolin-6-yl}-N-cyclopropyl-3-fluorobenzamide] | > 200
5 | CNC(=O)c1ccc(-c2ccc3c(c2)CCN([C@@H]2CCN(C(C)C)C2)C3=O)cc1 (as salt: hydrochloride) [Example 82] | > 275
6 | CCNC(=O)c1ccc(-c2ccc3c(c2)CCN([C@@H]2CCN(C(C)C)C2)C3=O)cc1 (as salt: hydrochloride) [Example 83, N-ethyl-4-{2-[(3R)-1-isopropylpyrrolidin-3-yl]-1-oxo-1,2,3,4-tetrahydroisoquinolin-6-yl}benzamide] | > 270
7 | CC(C)N1CC[C@@H](N2CCc3cc(-c4ccc(C(=O)N5CCCC5)cc4F)ccc3C2=O)C1 (as salt: hydrochloride) [Example 84, 6-[2-fluoro-4-(pyrrolidin-1-ylcarbonyl)phenyl]-2-[(3R)-1-isopropylpyrrolidin-3-yl]-3,4-dihydroisoquinolin-1(2H)-one] | 249 to 250
8 | CNC(=O)c1ccc(-c2ccc3c(c2)CCN([C@@H]2CCN(C(C)C)C2)C3=O)c(F)c1 (as salt: hydrochloride) [Example 85, 3-fluoro-4-{2-[(3R)-1-isopropylpyrrolidin-3-yl]-1-oxo-1,2,3,4-tetrahydroisoquinolin-6-yl}-N-methylbenzamide] | 245 to 247
9 | CCNC(=O)c1ccc(-c2ccc3c(c2)CCN([C@@H]2CCN(C(C)C)C2)C3=O)c(F)c1 (as salt: hydrochloride) [Example 86, N-ethyl-3-fluoro-4-{2-[(3R)-1-isopropylpyrrolidin-3-yl]-1-oxo-1,2,3,4-tetrahydroisoquinolin-6-yl}benzamide] | > 255
10 | O=C(NC1CCCC1)c1ccc2c(c1)CCN([C@@H]1CCN(C3CCC3)C1)C2=O (as salt: hydrochloride) [Example 88, 2-[(3R)-1-cyclobutylpyrrolidin-3-yl]-N-cyclopentyl-1-oxo-1,2,3,4-tetrahydroisoquinoline-6-carboxamide hydrochloride] | 124 to 125
11 | O=C1NCCc2cc(-c3ccc4c(c3)CCN([C@@H]3CCN(C5CCC5)C3)C4=O)ccc21 (as salt: hydrochloride) [Example 89, (R)-2-(1-cyclobutylpyrrolidin-3-yl)-3,3′,4,4′-tetrahydro-6,6′-biisoquinoline-1,1′(2H,2′H)-dione hydrochloride] | > 274
12 | CNC(=O)c1ccc(-c2ccc3c(c2)CN([C@@H]2CCN(C4CCC4)C2)C3=O)cc1 (as salt: hydrochloride) [Example 91, (R)-4-(2-(1-cyclobutylpyrrolidin-3-yl)-1-oxoisoindolin-5-yl)-N-methylbenzamide hydrochloride] | 207 to 208
13 | O=C(c1ccc(-c2ccc3c(c2)CN([C@@H]2CCN(C4CCC4)C2)C3=O)cc1)N1CCCC1 (as salt: hydrochloride) [Example 92, (R)-2-(1-cyclobutylpyrrolidin-3-yl)-5-(4-(pyrrolidine-1-carbonyl)-phenyl)isoindolin-1-one hydrochloride] | 220 to 221
14 | O=C(c1ccc(-c2ccc3c(c2)CCN(C2CCN(Cc4ccccc4)CC2)C3=O)cc1)N1CCCC1 [Example 63, 2-(1-benzylpiperidin-4-yl)-6-(4-(pyrrolidine-1-carbonyl)phenyl)-3,4-dihydroisoquinolin-1(2H)-one] | 197 to 198
15 | O=C(c1ccc(-c2ccc3c(c2)CCN(C2CCNCC2)C3=O)cc1)N1CCCC1 [Example 64, 2-(piperidin-4-yl)-6-(4-(pyrrolidine-1-carbonyl)phenyl)-3,4-dihydroisoquinolin-1(2H)-one] | > 273
16 | CNC(=O)c1ccc(-c2ccc3c(c2)CCN([C@H]2CCN(C4CCC4)C2)C3=O)cc1.Cl [Example 90, (R)-4-(2-(1-cyclobutylpyrrolidin-3-yl)-1-oxo-1,2,3,4-tetrahydro-isoquinolin-6-yl)-N-methylbenzamide hydrochloride] | 265 to 266

molecular target: T1, Human Histamine H3 Receptor (Homo sapiens, UniProt Q9Y5N1); experiment: Methyl histamine binding in human histamine H3 receptor cell line; settings: membranes of stably transfected HEK293T cells; radioligand 1 nM; Ki from IC50 by Cheng-Prusoff
T1 construct: expressed in transfected cells; host or cells: HEK293T cells, stably transfected; membrane preparation
Description: Evaluation of Methyl Histamine Binding in Human Histamine H3 Receptor Cell Line
The affinity of test compounds for the histamine 3 (H3) receptor is evaluated in the following manner. Stably transfected HEK293T cells are grown in DMEM containing 10% heat inactivated FBS and G-418 (500 ug/ml). Cells are scraped from the plate, transferred to centrifuge tubes, washed one time in PBS by centrifugation in a Sorvall RT7 Plus centrifuge (2000 rpm 10 minutes, 4° C.). The resulting pellets are stored at −80° C. until ready for use. Cells are re-suspended in buffer (50 mM Tris pH=7.5) and placed in a Dounce homogenizer, douncing ten times to homogenize cells. The homogenate is spun down by centrifugation (Sorvall RT7 Plus, 1800 rpm 10 minutes, 4° C.). The supernatant is placed in a Corex tube and spun down by centrifugation (Sorvall RC 5c Plus, 17,000 rpm 20 minutes, 4° C.). The pellet is resuspended in buffer (50 mM Tris, pH 7.5). Protein concentration (ug/ul) is determined using the Micro-BCA Protein Determination. The binding assay is set up in a 96 well microtiter plate in a total volume of 250 uL. Non-specific binding is determined in the presence of 10 uM clobenpropit. The final radioligand concentration is 1 nM. The test compound is serially diluted using the Beckman Biomek2000 to a final approximate range of 100 uM to 100 pM. Membranes are suspended in buffer, homogenized in 2 bursts of ten seconds using a Vitris mechanical homogenizer set at power setting 5. Ten μg of membranes are added to each well. Following a one hour incubation at 30° C., the reaction is terminated by the addition of ice cold buffer and rapid filtration with a Packard Filtermate Harvester through a GF/B filter pre-soaked with 1% PEI for one hour. The plate is dried for one hour at 37° C. and 60 μL Microscint Scintillant is added to each well. The CPM per well is measured on a Packard Top Count NXT. Ki values are determined in nM. The Ki is calculated from the IC50 (i.e. the concentration of competing ligand which displaces 50% of the specific binding of the radioligand). CPM values are expressed as % specific binding and plotted vs compound concentration. A curve is fitted using a four-parameter logistic fit and the IC50 value is determined. The Ki is calculated from this using the Cheng-Prusoff equation: […]=IC50/1+(L/Kd) where L=concentration of free radioligand used in the assay, and Kd is the dissociation constant of the radioligand for the receptor. L is determined for each experiment by counting an aliquot of the diluted radioligand (corresponding to that added to each well) and the Kd has previously been determined under identical conditions for this cell line/radioligand.

T1 sequence (Q9Y5N1 whole entry): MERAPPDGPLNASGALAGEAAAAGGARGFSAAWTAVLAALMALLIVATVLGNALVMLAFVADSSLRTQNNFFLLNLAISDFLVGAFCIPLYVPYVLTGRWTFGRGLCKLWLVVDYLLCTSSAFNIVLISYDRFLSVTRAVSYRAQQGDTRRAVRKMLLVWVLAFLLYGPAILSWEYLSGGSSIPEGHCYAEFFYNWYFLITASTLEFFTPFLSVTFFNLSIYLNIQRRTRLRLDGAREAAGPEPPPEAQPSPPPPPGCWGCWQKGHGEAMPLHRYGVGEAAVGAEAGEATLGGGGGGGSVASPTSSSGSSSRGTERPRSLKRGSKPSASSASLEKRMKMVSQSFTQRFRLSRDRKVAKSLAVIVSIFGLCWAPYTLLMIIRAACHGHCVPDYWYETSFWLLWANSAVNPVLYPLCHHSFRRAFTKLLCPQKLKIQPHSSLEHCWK

Row | SMILES | Ki [nM]
17 | CNC(=O)c1ccc(-c2ccc3c(c2)CCN(C2CCN(C4CCC4)C2)C3=O)cc1 (stereo in doubt) [Example 90, (R)-4-(2-(1-cyclobutylpyrrolidin-3-yl)-1-oxo-1,2,3,4-tetrahydro-isoquinolin-6-yl)-N-methylbenzamide hydrochloride] | ≤ 10
18 | COC(=O)c1ccc(Oc2ccc3c(c2)CCN(C2CCN(C4CCC4)CC2)C3=O)cc1 [Example 1, methyl 4-{[2-(1-Cyclobutylpiperidin-4-yl)-1-oxo-1,2,3,4-tetrahydroisoquinolin-6-yl]oxy}benzoate] | 50.1 to 100
19 | NC(=O)c1ccc(Oc2ccc3c(c2)CCN(C2CCN(C4CCC4)CC2)C3=O)cc1 [Example 3, 4-{[2-(1-cyclobutylpiperidin-4-yl)-1-oxo-1,2,3,4-tetrahydroiso-quinolin-6-yl]oxy}benzamide Hydrochloride] | 10.1 to 25
20 | CNC(=O)c1ccc(Oc2ccc3c(c2)CCN(C2CCN(C4CCC4)CC2)C3=O)cc1 [Example 4, 4-{[2-(1-Cyclobutylpiperidin-4-yl)-1-oxo-1,2,3,4-tetrahydroisoquinolin-6-yl]oxy}-N-methylbenzamide] | ≤ 10
21 | CCNC(=O)c1ccc(Oc2ccc3c(c2)CCN(C2CCN(C4CCC4)CC2)C3=O)cc1 [Example 5, 4-{[2-(1-Cyclobutylpiperidin-4-yl)-1-oxo-1,2,3,4-tetrahydroisoquinolin-6-yl]oxy}-N-ethylbenzamide] | ≤ 10
22 | CC(C)NC(=O)c1ccc(Oc2ccc3c(c2)CCN(C2CCN(C4CCC4)CC2)C3=O)cc1 [Example 6, 4-{[2-(1-Cyclobutylpiperidin-4-yl)-1-oxo-1,2,3,4-tetrahydroisoquinolin-6-yl]oxy}-N-isopropylbenzamide] | 10.1 to 25
23 | O=C(NC1CC1)c1ccc(Oc2ccc3c(c2)CCN(C2CCN(C4CCC4)CC2)C3=O)cc1 [Example 7, 4-{[2-(1-Cyclobutylpiperidin-4-yl)-1-oxo-1,2,3,4-tetrahydroisoquinolin-6-yl]oxy}-N-cyclopropylbenzamide] | ≤ 10
24 | O=C(NC1CCC1)c1ccc(Oc2ccc3c(c2)CCN(C2CCN(C4CCC4)CC2)C3=O)cc1 [Example 8, N-Cyclobutyl-4-{[2-(1-cyclobutylpiperidin-4-yl)-1-oxo-1,2,3,4-tetrahydroisoquinolin-6-yl]oxy}benzamide] | ≤ 10
25 | O=C(NC1CCCC1)c1ccc(Oc2ccc3c(c2)CCN(C2CCN(C4CCC4)CC2)C3=O)cc1 [Example 9, 4-{[2-(1-Cyclobutylpiperidin-4-yl)-1-oxo-1,2,3,4-tetrahydroisoquinolin-6-yl]oxy}-N-cyclopentylbenzamide] | 10.1 to 25
26 | CN(C)C(=O)c1ccc(Oc2ccc3c(c2)CCN(C2CCN(C4CCC4)CC2)C3=O)cc1 [Example 10, 4-{[2-(1-Cyclobutylpiperidin-4-yl)-1-oxo-1,2,3,4-tetrahydroisoquinolin-6-yl]oxy}-N,N-dimethylbenzamide] | 10.1 to 25
